{"source": "patent US20020169140A1", "about": "“Combination therapy for reduction of toxicity of chemotherapeutic agents” (priority 2001, published 2002)", "key": {"[1]": {"system": "large cell lung cancer line LXFL 529L", "experiment": "Monolayer proliferation inhibition, modified propidium iodide assay", "format": "cell-based", "conditions": "for In vitro activity (Test/Control %): 4 days exposure, median of 5 experiments; for tumour effects (words): circiliol alone at 3 μg/ml; for in vitro activity of the agent alone: single agent, stated for both cell lines"}, "[2]": {"system": "lung adenocarcinoma cell line LXFA 526L", "experiment": "Monolayer proliferation inhibition, modified propidium iodide assay", "format": "cell-based", "conditions": "for In vitro activity (Test/Control %): 4 days exposure, median of 5 experiments; for tumour effects (words): circiliol alone at 3 μg/ml; for in vitro activity of the agent alone: single agent, stated for both cell lines"}, "[3]": {"conditions": "LXFA 529L, 0 μg/ml circiliol, median of 2-5 experiments"}, "[4]": {"conditions": "LXFA 529L, +3 μg/ml circiliol, median of 2-5 experiments"}}, "note": "Entries after “also recorded” stand apart in the source; their conditions may differ."}
{"compound": "COc1cc2oc(-c3ccc(O)c(O)c3)cc(=O)c2c(O)c1OC", "note": "[Circiliol, 6,7-dimethoxy-5,3′4′-trihydroxyflavone]", "values": [{"measurement": "In vitro activity (Test/Control %)", "setting": "[1]; LXFA 529L, circiliol 3 μg/ml", "result": 102, "unit": "%"}, {"measurement": "In vitro activity (Test/Control %)", "setting": "[1]; LXFA 529L, circiliol 30 μg/ml", "result": 49, "unit": "%"}, {"measurement": "In vitro activity (Test/Control %)", "setting": "[1]; LXFA 529L, circiliol 300 μg/ml", "result": 39, "unit": "%"}, {"measurement": "tumour effects (words)", "setting": "[1]", "result": "inactive alone"}, {"measurement": "tumour effects (words)", "setting": "[1]; listed as circiliol", "result": "no tumour effects"}, {"measurement": "inhibition of tumour growth in vitro", "setting": "[1]; circiliol alone at 30 μg/ml", "result": 50, "unit": "%"}, {"measurement": "antitumour activity in vitro", "setting": "[1]; circiliol alone at <3 μg/ml", "result": "no antitumour activity"}, {"measurement": "in vitro activity of the agent alone", "setting": "[1]", "result": "only moderately active; also recorded: low activity"}, {"measurement": "In vitro activity (Test/Control %)", "setting": "[2]; LXFA 526L, circiliol 3 μg/ml", "result": 93, "unit": "%"}, {"measurement": "In vitro activity (Test/Control %)", "setting": "[2]; LXFA 526L, circiliol 30 μg/ml", "result": 53, "unit": "%"}, {"measurement": "In vitro activity (Test/Control %)", "setting": "[2]; LXFA 526L, circiliol 300 μg/ml", "result": 55, "unit": "%"}, {"measurement": "tumour effects (words)", "setting": "[2]", "result": "inactive alone"}, {"measurement": "tumour effects (words)", "setting": "[2]; listed as circiliol", "result": "no tumour effects"}, {"measurement": "inhibition of tumour growth in vitro", "setting": "[2]; circiliol alone at 30 μg/ml", "result": 50, "unit": "%"}, {"measurement": "antitumour activity in vitro", "setting": "[2]; circiliol alone at <3 μg/ml", "result": "no antitumour activity"}, {"measurement": "in vitro activity of the agent alone", "setting": "[2]", "result": "only moderately active; also recorded: low activity"}]}
{"compound": "Nc1ccn([C@@H]2O[C@H](CO)[C@@H](O)C2(F)F)c(=O)n1", "note": "[gemcitabine, 2′, 2′-diflouro-2′-deoxycytidine, reference compound]", "values": [{"measurement": "IC50 of gemcitabine alone", "setting": "[1]; [3]", "result": 0.355, "unit": "µg/mL"}, {"measurement": "IC70 of gemcitabine alone", "setting": "[1]; [3]", "result": 0.64, "unit": "µg/mL"}, {"measurement": "IC50 of gemcitabine in combination with circiliol", "setting": "[1]; [4]", "result": 0.039, "unit": "µg/mL"}, {"measurement": "IC70 of gemcitabine in combination with circiliol", "setting": "[1]; [4]", "result": 0.076, "unit": "µg/mL"}, {"measurement": "fold increase of antitumour activity of gemcitabine (IC70 shift)", "setting": "[1]; LXFA 529L, with 30 μg/ml circiliol", "result": 19, "unit": "fold"}, {"measurement": "IC50", "setting": "[1]; LXFL 529L, LXFA 529L, 0 μg/ml circiliol, median of 2-5 experiments, read-out: IC50 of gemcitabine alone", "result": 0.36, "unit": "µg/mL"}, {"measurement": "in vitro activity of the agent alone", "setting": "[1]", "result": "potently active"}, {"measurement": "IC70 of gemcitabine alone", "setting": "[2]; LXFA 526L, 0 μg/ml circiliol, median of 2-5 experiments", "result": 5.6, "unit": "µg/mL"}, {"measurement": "IC70 of gemcitabine alone", "setting": "[2]; LXFA 526L, 0 μg/ml circiliol, median of 2-5 experiments, listed as Gemcitabine", "result": 5.7, "unit": "µg/mL"}, {"measurement": "IC50", "setting": "[2]; LXFA 526L, 0 μg/ml circiliol, median of 2-5 experiments, read-out: IC50 of gemcitabine alone", "result": 0.63, "unit": "µg/mL"}, {"measurement": "IC70 of gemcitabine in combination with circiliol", "setting": "[2]; LXFA 526L, +3 μg/ml circiliol, median of 2-5 experiments", "result": 0.87, "unit": "µg/mL"}, {"measurement": "IC70 of gemcitabine in combination with circiliol", "setting": "[2]; LXFA 526L, +30 μg/ml circiliol, median of 2-5 experiments", "result": 0.58, "unit": "µg/mL"}, {"measurement": "fold increase of antitumour activity of gemcitabine (IC70 shift)", "setting": "[2]; LXFA 526L, with 30 μg/ml circiliol", "result": 10, "unit": "fold"}, {"measurement": "in vitro activity of the agent alone", "setting": "[2]", "result": "potently active"}]}
